Several values for one entry are separate records, joined by “and”; a condition that tells them apart may be missing. Identical values can stand only once.
Tested on: 287954-098-R-J1 tumor spheroid viability
Assay: Anticancer human tumor 287954-098-R-J1 patient-derived Ewing sarcoma cell line growth inhibition
Settings: spheroids with HUVEC and MSC; for viability, T/C: stronger effect = lower value
Summary of the method: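 Complex tumor spheroids combined malignant cells with endothelial cells and mesenchymal stem cells. DNA-damaging drugs and DNA repair inhibitors were tested alone and in combination, at half-log dilutions down from clinical Cmax (top 10 microM if Cmax unknown), 0.25% DMSO final.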

[1] = curve of first compound, second compound 0.003 µM
[2] = curve of first compound, second compound 0.00949 µM
[3] = curve of first compound, second compound 0.03 µM
[4] = curve of first compound, second compound 0.0949 µM
[5] = curve of first compound, second compound 0.3 µM
[6] = second compound 0.003 µM, first compound 0.0316 µM
[7] = second compound 0.003 µM, first compound 0.1 µM
[8] = second compound 0.003 µM, first compound 0.316 µM
[9] = second compound 0.003 µM, first compound 1 µM
[10] = second compound 0.003 µM, first compound 3.16 µM
[11] = second compound 0.003 µM, first compound 10 µM
[12] = second compound 0.00949 µM, first compound 0.0316 µM
[13] = second compound 0.00949 µM, first compound 0.1 µM
[14] = second compound 0.00949 µM, first compound 0.316 µM
[15] = second compound 0.00949 µM, first compound 1 µM
[16] = second compound 0.00949 µM, first compound 3.16 µM
[17] = second compound 0.00949 µM, first compound 10 µM
[18] = second compound 0.03 µM, first compound 0.0316 µM
[19] = second compound 0.03 µM, first compound 0.1 µM
[20] = second compound 0.03 µM, first compound 0.316 µM
[21] = second compound 0.03 µM, first compound 1 µM
[22] = second compound 0.03 µM, first compound 3.16 µM
[23] = second compound 0.03 µM, first compound 10 µM
[24] = second compound 0.0949 µM, first compound 0.0316 µM
[25] = second compound 0.0949 µM, first compound 0.1 µM
[26] = second compound 0.0949 µM, first compound 0.316 µM
[27] = second compound 0.0949 µM, first compound 1 µM
[28] = second compound 0.0949 µM, first compound 3.16 µM
[29] = second compound 0.0949 µM, first compound 10 µM
[30] = second compound 0.3 µM, first compound 0.0316 µM
[31] = second compound 0.3 µM, first compound 0.1 µM
[32] = second compound 0.3 µM, first compound 0.316 µM
[33] = second compound 0.3 µM, first compound 1 µM
[34] = second compound 0.3 µM, first compound 3.16 µM
[35] = second compound 0.3 µM, first compound 10 µM
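Note: spheroids exposed to compound for 7 days before viability readout.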
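Throughout, for viability, T/C: luminescent signal taken as surrogate of viable cell content; 100% = DMSO vehicle control viability and lower means growth inhibition.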

## CC1COCCN1c1cc(-c2ccnn2C)c2ccnc(-c3ccn[nH]3)c2n1 (configuration not stated) + CC[C@@]1(O)C(=O)OCc2c1cc1n(c2=O)Cc2cc3c(CN(C)C)c(O)ccc3nc2-1
[1]
  IC50: 45.5 nM
[2]
  IC50: < 31.6 nM
[3]
  IC50: < 31.6 nM
[4]
  IC50: < 31.6 nM
[5]
  IC50: < 31.6 nM
[6]
  viability, T/C: 66.4%
[7]
  viability, T/C: 14.3%
[8]
  viability, T/C: 7.1%
[9]
  viability, T/C: 2.65%
[10]
  viability, T/C: 1.92%
[11]
  viability, T/C: 2.07%
[12]
  viability, T/C: 3.62%
[13]
  viability, T/C: 1.68%
[14]
  viability, T/C: 2.2%
[15]
  viability, T/C: 1.74%
[16]
  viability, T/C: 1.4%
[17]
  viability, T/C: 2%
[18]
  viability, T/C: 1.73%
[19]
  viability, T/C: 1.36%
[20]
  viability, T/C: 1.38%
[21]
  viability, T/C: 0.71%
[22]
  viability, T/C: 1.17%
[23]
  viability, T/C: 1.55%
[24]
  viability, T/C: 1.53%
[25]
  viability, T/C: 1.31%
[26]
  viability, T/C: 1.28%
[27]
  viability, T/C: 0.9%
[28]
  viability, T/C: 0.77%
[29]
  viability, T/C: 1.08%
[30]
  viability, T/C: 1.62%
[31]
  viability, T/C: 1.43%
[32]
  viability, T/C: 1.23%
[33]
  viability, T/C: 0.85%
[34]
  viability, T/C: 0.69%
[35]
  viability, T/C: 0.67%

## [2H]c1nc(C)nc([2H])c1-c1cc(NC[C@@H](C)c2cccc3c(C(=O)NC)ccnc23)ncn1 + CC[C@@]1(O)C(=O)OCc2c1cc1n(c2=O)Cc2cc3c(CN(C)C)c(O)ccc3nc2-1
[1]
  IC50: > 10000 nM
[2]
  IC50: > 10000 nM
[3]
  IC50: < 31.6 nM
[4]
  IC50: < 31.6 nM
[5]
  IC50: < 31.6 nM
[6]
  viability, T/C: 101%
[7]
  viability, T/C: 109%
[8]
  viability, T/C: 111%
[9]
  viability, T/C: 107%
[10]
  viability, T/C: 96.2%
[11]
  viability, T/C: 105%
[12]
  viability, T/C: 104%
[13]
  viability, T/C: 108%
[14]
  viability, T/C: 99.1%
[15]
  viability, T/C: 106%
[16]
  viability, T/C: 110%
[17]
  viability, T/C: 109%
[18]
  viability, T/C: 32%
[19]
  viability, T/C: 31.6%
[20]
  viability, T/C: 47.8%
[21]
  viability, T/C: 10.1%
[22]
  viability, T/C: 15.7%
[23]
  viability, T/C: 4.42%
[24]
  viability, T/C: 1.07%
[25]
  viability, T/C: 0.66%
[26]
  viability, T/C: 0.37%
[27]
  viability, T/C: 0.51%
[28]
  viability, T/C: 0.49%
[29]
  viability, T/C: 0.51%
[30]
  viability, T/C: 0.91%
[31]
  viability, T/C: 0.5%
[32]
  viability, T/C: 0.31%
[33]
  viability, T/C: 0.64%
[34]
  viability, T/C: 0.57%
[35]
  viability, T/C: 0.57%

## CC1COCCN1c1cc(-c2ccnn2C)c2ccnc(-c3ccn[nH]3)c2n1 (configuration not stated) + COc1cc2c(cc1O)CCNC21CSC2c3c(OC(C)=O)c(C)c4c(c3C(COC1=O)N1C(O)C3Cc5cc(C)c(OC)c(O)c5C(C21)N3C)OCO4
Curve of first compound, second compound 30 pM
  IC50: 74.6 nM
Curve of first compound, second compound 94.9 pM
  IC50: 48.3 nM
Curve of first compound, second compound 0.0003 µM
  IC50: < 31.6 nM
Curve of first compound, second compound 0.000949 µM
  IC50: < 31.6 nM
[1]
  IC50: < 31.6 nM
Second compound 30 pM, first compound 0.0316 µM
  viability, T/C: 111%
Second compound 30 pM, first compound 0.1 µM
  viability, T/C: 28.8%
Second compound 30 pM, first compound 0.316 µM
  viability, T/C: 7.3%
Second compound 30 pM, first compound 1 µM
  viability, T/C: 4.7%
Second compound 30 pM, first compound 3.16 µM
  viability, T/C: 1.8%
Second compound 30 pM, first compound 10 µM
  viability, T/C: 2.96%
Second compound 94.9 pM, first compound 0.0316 µM
  viability, T/C: 73.7%
Second compound 94.9 pM, first compound 0.1 µM
  viability, T/C: 9.38%
Second compound 94.9 pM, first compound 0.316 µM
  viability, T/C: 3.08%
Second compound 94.9 pM, first compound 1 µM
  viability, T/C: 1.84%
Second compound 94.9 pM, first compound 3.16 µM
  viability, T/C: 1.08%
Second compound 94.9 pM, first compound 10 µM
  viability, T/C: 2.57%
Second compound 0.0003 µM, first compound 0.0316 µM
  viability, T/C: 2.38%
Second compound 0.0003 µM, first compound 0.1 µM
  viability, T/C: 1.69%
Second compound 0.0003 µM, first compound 0.316 µM
  viability, T/C: 1.1%
Second compound 0.0003 µM, first compound 1 µM
  viability, T/C: 0.7%
Second compound 0.0003 µM, first compound 3.16 µM
  viability, T/C: 0.69%
Second compound 0.0003 µM, first compound 10 µM
  viability, T/C: 0.94%
Second compound 0.000949 µM, first compound 0.0316 µM
  viability, T/C: 0.28%
Second compound 0.000949 µM, first compound 0.1 µM
  viability, T/C: 0.34%
Second compound 0.000949 µM, first compound 0.316 µM
  viability, T/C: 0.31%
Second compound 0.000949 µM, first compound 1 µM
  viability, T/C: 0.09%
Second compound 0.000949 µM, first compound 3.16 µM
  viability, T/C: 0.03%
Second compound 0.000949 µM, first compound 10 µM
  viability, T/C: 0.13%
[6]
  viability, T/C: 0.19%
[7]
  viability, T/C: 0.19%
[8]
  viability, T/C: 0.14%
[9]
  viability, T/C: 0.12%
[10]
  viability, T/C: 0.11%
[11]
  viability, T/C: 0.22%

## COc1cc(C)[nH]c(=O)c1CN1CCc2c(Cl)cc(C(OC)C3COC3)c(Cl)c2C1=O (configuration not stated)
Compound 0.0316 µM
  viability, T/C: 97.7% and 96.7% and 96.6%
Compound 0.1 µM
  viability, T/C: 94.9% and 102% and 98.6%
Compound 0.316 µM
  viability, T/C: 82.7% and 91.7% and 95.5%
Compound 1 µM
  viability, T/C: 93.9% and 89.7% and 90.5%
Compound 3.16 µM
  viability, T/C: 95.1% and 83.6% and 94.9%
Compound 10 µM
  viability, T/C: 93% and 92.8% and 93.6%
Curve of compound
  IC50: > 10000 nM

From PubChem BioAssay AID1845194 (Molecular Pharmacology Branch, DTP, NCI, 2023)
